Measurements from patent US20040005327A1, “Immune T-cell stimulation” (priority 2002, published 2004).
Several values for one entry are separate records, joined by “and”; a condition that tells them apart may be missing. Equal entries are not always repeated.

Test system: T-lymphocytes
Assay: Blastogenesis of T-cells, 3H-thymidine incorporation
Type: cell-based
Details: for 3H-thymidine incorporation/well / Stimulation Index: PHA 5 μg/ml
Description: Dilutions of PHA were prepared from 1:100 to 1:1000 and the dilutions were added to mycro-plate system lymphocyte cultures. Phytohemaglutinin, Pockeweed antigen and A Concanavalin were added to identified wells. After the culture period, T-lymphocytes proliferation was determined by radioactive tymidine uptake assay.
The present study compared the mitogenic effect of hyperimmune whole egg and a partially purified fraction of the hyperimmune egg (less then 3K fraction described in Example 2) against control medium alone. The hyperimmune whole egg was tested at varying concentrations that include 0.24, 0.98, 3.9, 15.6, 62.5 and 250 μg/ml. The purified less than 3K fraction from the hyperimmune egg was tested at 0.1, 0.2, 0.7, 2.0, 6.1, 18.4, 55.3 and 166.0 μg/ml concentrations. The Stimulating Index for hyperimmune whole egg, in accordance with the above concentrations, was 0.9, 0.8, 0.9, 0.9, 0.8, and 0.8 respectively, which corresponds, in the test conditions, to a cell population increase of 90, 80, 90, 90, 80 and 80% respectively. The Stimulating Index for the 3K purified fraction, in accordance with the above concentrations, was 1.1, 1.2, 1.5, 1.7, 1.4, 1.3, 1.0 and 1.2 respectively (see Table 2), which corresponds, in the test conditions, to a cell population increasing of 110, 120, 150, 170, 140, 130, 100 and 120% respectively.

[1] = single wells No. 1-6, first study
[2] = single wells No. 1-6, repeated study

## Phytohemaglutinin [PHA]
AVE of 6 wells, first study
  3H-thymidine incorporation/well: 108028 cpm
  Stimulation Index: 195.8
AVE of 6 wells, repeated study
  3H-thymidine incorporation/well: 109901 cpm
  Stimulation Index: 292.2
[1]
  3H-thymidine incorporation/well: 98898 cpm and 121212 cpm and 97149 cpm and 118218 cpm and 101241 cpm and 111452 cpm
  Stimulation Index: 179.2 and 219.7 and 176.0 and 214.2 and 183.5 and 202.0
[2]
  3H-thymidine incorporation/well: 110201 cpm and 121811 cpm and 97453 cpm and 112934 cpm and 102484 cpm and 114522 cpm
  Stimulation Index: 293.0 and 323.8 and 259.1 and 300.2 and 272.4 and 304.4
PHA dilutions 1:100 to 1:1000, radioactive tymidine uptake
  T-lymphocytes proliferation: increased the proliferation of free mitogen lymphocytes intensively
